Measured values published in article PMC6100512, “In-Vitro Activity of Silybin and Related Flavonolignans against Leishmania infantum and L. donovani” (Molecules : A Journal of Synthetic Chemistry and Natural …, 2018).

Tests used:
[1] = tested on: Li promastigotes; assay: Drug combination with DhiS-A, Chou-Talalay method (CalcuSyn); format: cell-based, Leishmania infantum; conditions: for DRI of DhiS-A in combination with AmB / Dose Required of DhiS-A in combination with AmB: AmB:DhiS-A 0.01:15; for Dose Required of DhiS-A in combination with AmB / Dose Required of DhiS-A in combination with PMM / Dose Required of DhiS-A in combination with Sb^III: computer-simulated; for DRI of DhiS-A in combination with PMM / Dose Required of DhiS-A in combination with PMM: PMM:DhiS-A 5:1; for DRI of DhiS-A in combination with Sb^III / Dose Required of DhiS-A in combination with Sb^III: Sb^III:DhiS-A 1:1
Method: Fixed-combination ratios of drugs were based on the IC50 values determined for the individual molecules. Mid-log-phase promastigotes of Li were exposed for 24 h at constant ratios of 0.01:15 (AmB:DhiS-A), 1:1 (Sb^III:DhiS-A) and 5:1 (PMM:DhiS-A). Dose–response curves of the combinations were analyzed with the Chou–Talalay method, based on the theorem of combination index (CI)-isobologram and CalcuSyn software. This method allows the evaluation of the type of interaction between two molecules according to mass action law. Results can be used to determine quantitatively the synergy (CI < 1), additive effect (CI = 1) or antagonism (CI > 1) of combinations. Moreover, the program allows the calculation of the drug reduction index (DRI): dose reduction in drug combinations to reach a given inhibition compared to the activity of the individual drugs.

[2] = tested on: intracellular amastigotes of Ld; assay: Activity against intracellular amastigotes ex vivo in mouse peritoneal Mφ; format: cell-based, L. donovani; conditions: 24 h
Method: Antiproliferative activity of flavonolignans against intracellular amastigotes was determined ex vivo using mouse peritoneal Mφ. Infections were carried out following the method and modifications described by us. Briefly, Mφ were seeded onto 8-well cell culture slides (SLP, Lifesciences Co., Pocheon, Korea) in a final volume of 400 µL (2.5 × 10^4 Mφ/well). Plates were incubated overnight at 37 °C under humidified 5% CO2/95% air atmosphere to facilitate adherence. Stationary-phase promastigotes of Ld and Li were centrifuged (370× g, 10 min) without break in a Ficoll (Sigma, Saint Louis, MO, USA) gradient (0%, 10% in Medium 199 and 30% in sterile phosphate-buffered saline). Metacyclic promastigotes, located in the 10–30% Ficoll interphase, were recovered, washed and opsonized in 15% normal mouse serum in 1:1 solution of RPMI and HBSS medium (Gibco, Life Technologies, Paisley, UK), 0.15 mM CaCl2 and 1 mM MgCl2 at 37 °C, 5% CO2 atmosphere for 30 min. Purified metacyclic promastigotes were added to the Mφ cultures using a ratio 4:1 (promastigotes:Mφ) for Li and 10:1 for Ld. Plates were incubated at 33 °C overnight as above. Noninternalized promastigotes were eliminated by repeated washing with fresh medium. Treatments (10 µM) were added to the cultures and kept for 24 h. […] Experiments were done in triplicate and the activity was expressed as % of inhibition compared to untreated cultures.

[3] = tested on: BALB/c mouse peritoneal macrophages, Mφ; assay: Toxicity of flavonolignans for macrophages (CellTiter-Glo); format: cell-based; conditions: Peritoneal macrophage, 24 h, 28.125 to 900 µM, approximate
Method: Toxicity of flavonolignans for mammalian cells was determined using mouse peritoneal Mφ. Cells obtained were counted and seeded onto 96-well cultures plates (Costar, Corning) at a final concentration of 5 × 10^4 Mφ/well (100 µL/well). Plates were incubated overnight at 37 °C and humidified 5% CO2/95% air to facilitate adherence. Cells were cultured as above for 24 h with different concentrations of the flavonolignans (28.125 µM, 56.25 µM, 112.5 µM, 225 µM, 450 µM and 900 µM). After incubation, cell viability was determined with CellTiter-Glo® as previously described. Untreated and 300 µM AmB-treated control wells were included. Experiments were done in triplicate and approximate IC50 determined.

[4] = tested on: intracellular amastigotes of Li BCN150; assay: Activity against intracellular amastigotes ex vivo in mouse peritoneal Mφ; format: cell-based, Leishmania infantum; conditions: 24 h
Method: Antiproliferative activity of flavonolignans against intracellular amastigotes was determined ex vivo using mouse peritoneal Mφ. Infections were carried out following the method and modifications described by us. Briefly, Mφ were seeded onto 8-well cell culture slides (SLP, Lifesciences Co., Pocheon, Korea) in a final volume of 400 µL (2.5 × 10^4 Mφ/well). Plates were incubated overnight at 37 °C under humidified 5% CO2/95% air atmosphere to facilitate adherence. Stationary-phase promastigotes of Ld and Li were centrifuged (370× g, 10 min) without break in a Ficoll (Sigma, Saint Louis, MO, USA) gradient (0%, 10% in Medium 199 and 30% in sterile phosphate-buffered saline). Metacyclic promastigotes, located in the 10–30% Ficoll interphase, were recovered, washed and opsonized in 15% normal mouse serum in 1:1 solution of RPMI and HBSS medium (Gibco, Life Technologies, Paisley, UK), 0.15 mM CaCl2 and 1 mM MgCl2 at 37 °C, 5% CO2 atmosphere for 30 min. Purified metacyclic promastigotes were added to the Mφ cultures using a ratio 4:1 (promastigotes:Mφ) for Li and 10:1 for Ld. Plates were incubated at 33 °C overnight as above. Noninternalized promastigotes were eliminated by repeated washing with fresh medium. Treatments (10 µM) were added to the cultures and kept for 24 h. Slides were methanol-fixed and stained with May–Grünwald Giemsa (Merck) to determine the % of infection and the number of amastigotes/100 Mφ under microscope. Cultures untreated, treated with 0.05% DMSO and treated with 0.1 µM AmB were included as controls. Experiments were done in triplicate and the activity was expressed as % of inhibition compared to untreated cultures.

[5] = tested on: Li UCM9 promastigotes; assay: Multiplication of Li promastigotes in vitro (CellTiter-Glo, 24 h); format: cell-based, Leishmania infantum; conditions: for inhibition of growth at 120 µM: compared to untreated cultures, mean ± SD, read-out: Reduction (%) of multiplication, L infantum promastigotes; for Emax: read-out: Maximal effect (inhibition of growth of control cultures) on Li promastigotes
Method: (§1) Growth was estimated by the addition of CellTiter-Glo® (Promega, Madison, WI, USA) (1:1) in 96-well microtiter white plates (Costar, Corning). After 10 min incubation (light protected, room temperature), luminescence was determined with FLUOstar Omega (BMG Labtech) reader. Sensitivity of Ld was similarly performed with promastigotes exposed to 120 μM. Control cultures (medium, untreated promastigotes, promastigotes treated with 0.2 μM AmB) were included. Experiment was carried out in triplicate and results expressed as % of inhibition of untreated control. Approximate IC50 values of the flavonolignans showing the highest inhibitory activity against Li mid-log-phase promastigotes were determined using dose-response curves. […] The compound with the highest activity, DhiS-A, was assayed against Ld promastigotes using the latter dilution series and the same culture conditions as above. For comparative purposes, mid-log promastigotes of Li and Ld were exposed to established anti-Leishmania agents: AmB (0.0078 μ[…] and 1.0 μM); […]

[6] = tested on: Ld promastigotes; assay: Multiplication of Ld promastigotes in vitro (CellTiter-Glo, 24 h); format: cell-based, L. donovani; conditions: Leishmania donovani; for inhibition of growth at 120 µM: compared to untreated cultures, mean ± SD, read-out: Reduction (%) of multiplication, L. donovani promastigotes
Method: as §1

[7] = tested on: amastigotes of L. major; design: method as in PMID 29716183; conditions: cited from earlier work
[8] = tested on: L. major promastigotes; design: method as in PMID 29716183; conditions: 12.5 µM; cited from earlier work
[9] = Leishmania infantum, exploratory screening, 0.94 µM up to 120 µM

COc1cc([C@H]2Oc3ccc(-c4oc5cc(O)cc(O)c5c(=O)c4O)cc3O[C@@H]2CO)ccc1O [Dehydroisosilybin A, dehydroisosilybin A]
DRI of DhiS-A in combination with AmB ([1]; ED10): 0.88
Dose Required of DhiS-A in combination with AmB ([1]; ED10): 34.79 µM
DRI of DhiS-A in combination with AmB ([1]; ED25): 1.13
Dose Required of DhiS-A in combination with AmB ([1]; ED25): 44.61 µM
DRI of DhiS-A in combination with AmB ([1]; ED50): 1.47
Dose Required of DhiS-A in combination with AmB ([1]; ED50): 57.21 µM
DRI of DhiS-A in combination with PMM ([1]; ED50): 0.51
Dose Required of DhiS-A in combination with PMM ([1]; ED50): 164 µM
DRI of DhiS-A in combination with Sb^III ([1]; ED50): 1.50
Dose Required of DhiS-A in combination with Sb^III ([1]; ED50): 56 µM
DRI of DhiS-A in combination with AmB ([1]; ED75): 1.90
Dose Required of DhiS-A in combination with AmB ([1]; ED75): 73.36 µM
DRI of DhiS-A in combination with PMM ([1]; ED75): 0.60
Dose Required of DhiS-A in combination with PMM ([1]; ED75): 229 µM
DRI of DhiS-A in combination with Sb^III ([1]; ED75): 0.99
Dose Required of DhiS-A in combination with Sb^III ([1]; ED75): 141.12 µM
DRI of DhiS-A in combination with AmB ([1]; ED90): 2.91
Dose Required of DhiS-A in combination with AmB ([1]; ED90): 94.08 µM
DRI of DhiS-A in combination with PMM ([1]; ED90): 0.72
Dose Required of DhiS-A in combination with PMM ([1]; ED90): 318 µM
DRI of DhiS-A in combination with Sb^III ([1]; ED90): 0.65
Dose Required of DhiS-A in combination with Sb^III ([1]; ED90): 355.63 µM
DRI of DhiS-A in combination with AmB ([1]; ED95): 4.28
Dose Required of DhiS-A in combination with AmB ([1]; ED95): 111.42 µM
DRI of DhiS-A in combination with PMM ([1]; ED95): 0.81
Dose Required of DhiS-A in combination with PMM ([1]; ED95): 399 µM
DRI of DhiS-A in combination with Sb^III ([1]; ED95): 0.49
Dose Required of DhiS-A in combination with Sb^III ([1]; ED95): 666.84 µM
Intracellular burdens (amastigotes/100 Mφ) after treatment, Ld ([2]; 10 µM): did not show any reduction
Mφ infection (%), Ld ([2]; treated with 10 µM, nontreated 69.67 ± 8.50%): 67.0 ± 6.08%
IC50 [3]: ~30 µM
Antileishmanial activity on intracellular amastigotes (in words) ([4]; 10 µM): ineffective against amastigotes
Intracellular burdens (amastigotes/100 Mφ) after treatment, Li ([4]; 10 µM): did not show any reduction
Antileishmanial activity on intracellular amastigotes (in words) ([4]; 10 µM, listed as DhiS-A): did not show any antiproliferative activity
Mφ infection (%), Li ([4]; treated with 10 µM, nontreated 50.67 ± 4.62%): 45.67 ± 7.51%
inhibition of growth at 120 µM ([5]; Leishmania infantum, 24 h): 38.3 ± 4.96%
IC50 ([5]; Leishmania infantum, approximate, dose-response curve, 24 h): ~90.2 µM
Emax [5, 9]: < 50%
Inhibition of Li promastigote multiplication reached in dose-response curve ([5]; maximal concentration used 480/600 µM): complete inhibition
inhibition of growth at 120 µM [6]: 87.6 ± 2.82%
IC50 ([6]; approximate, dose-response curve): ~90.2 µM

COc1cc([C@H]2Oc3cc(-c4oc5cc(O)cc(O)c5c(=O)c4O)ccc3O[C@@H]2CO)ccc1O [Dehydrosilybin A, dehydrosilybin A]
IC50 [3]: ~60 µM
Reduction of Mφ infection, Li ([4]; 10 µM): 40.13 ± 12.6%
Reduction of intracellular amastigotes, Li ([4]; 10 µM): over 50%
inhibition of growth at 120 µM ([5]; Leishmania infantum, 24 h): 10.2 ± 6.97%
inhibition of growth at 120 µM [6]: -38.7 ± 5.41%

COc1cc([C@@H]2Oc3c(O)cc(-c4oc5cc(O)cc(O)c5c(=O)c4O)cc3[C@H]2CO)ccc1O [Dehydrosilychristin A, dehydrosilychristin A]
IC50 [3]: ~40 µM
inhibition of growth at 120 µM ([5]; Leishmania infantum, 24 h): 30.6 ± 3.33%
Emax [5, 9]: < 50%
inhibition of growth at 120 µM [6]: 46.7 ± 1.24%

COc1cc(C2Oc3cc([C@H]4Oc5cc(O)cc(O)c5C(=O)[C@@H]4O)ccc3OC2CO)ccc1O (stereo partly drawn) [Silybin AB, silybin AB]
Inhibition of the multiplication of amastigotes of L. major [7]: 53%
Antileishmanial activity on intracellular amastigotes (in words) ([4]; 10 µM): no antileishmanial activity was found
inhibition of growth at 120 µM ([5]; Leishmania infantum, 24 h): 5.4 ± 2.02%
Inhibition on Li promastigotes (in words) ([5]; exploratory screening, 0.94 µM up to 120 µM): neither silymarin nor the main component, silybin, elicited any inhibition
inhibition of growth at 120 µM [6]: 37 ± 3.91%

antimoniate of N-methyl glucamine [Sb^V, reference compound]
Reduction of the multiplication of L. major promastigotes [8]: ca. 70%
Sensitivity of Li promastigotes (in words) ([5]; dose-response 3.75-480 µM): insensitive
